From the NIST ThermoML archive (doi:10.1016/j.jct.2011.09.008)
Numbers after ± are expanded uncertainties.

Experiment: xn = mol fraction of the nth substance listed
Settings: 101 kPa, Liquid, Sing-around technique in a fixed-path interferometer

CCCOCC(C)O (stereo not given) [1-propoxy-2-propanol] + O
speed of sound [m/s]
Settings | 283.15 K | 288.15 K | 293.15 K | 298.15 K | 303.15 K
x1 = 0.00326 | 1470.7 ± 1.4 | 1487.1 ± 1.4 | 1501.5 ± 1.3 | 1514.2 ± 1.3 | 1527.5 ± 1.3
x1 = 0.00845 | 1503.1 ± 1.4 | 1516.8 ± 1.3 | 1528.7 ± 1.3 | 1538.8 ± 1.3 | 1548.3 ± 1.3
x1 = 0.01369 | 1533.3 ± 1.3 | 1543.7 ± 1.3 | 1552.5 ± 1.3 | 1560.1 ± 1.3 | 1565.5 ± 1.3
x1 = 0.01942 | 1563.4 ± 1.3 | 1570.1 ± 1.3 | 1575.7 ± 1.3 | 1579.2 ± 1.2 | 1581.5 ± 1.2
x1 = 0.02453 | 1582.6 ± 1.3 | 1585.6 ± 1.3 | 1586.9 ± 1.2 | 1586.7 ± 1.2 | 1585.7 ± 1.2
x1 = 0.02855 | 1594.9 ± 1.2 | 1594 ± 1.2 | 1591.7 ± 1.2 | 1587.7 ± 1.2 | 1582.4 ± 1.2
x1 = 0.03532 | 1598 ± 1.2 | 1590.9 ± 1.2 | 1583.2 ± 1.2 | 1575.1 ± 1.2 | 1566.6 ± 1.2
x1 = 0.04675 | 1577.1 ± 1.2 | 1566.9 ± 1.2 | 1557 ± 1.2 | 1547.1 ± 1.2 | 1536.8 ± 1.2
x1 = 0.06359 | 1545.3 ± 1.2 | 1535.2 ± 1.2 | 1524.6 ± 1.2 | 1513.5 ± 1.2 | 1501.6 ± 1.2
x1 = 0.08224 | 1520.5 ± 1.2 | 1509.6 ± 1.2 | 1498.1 ± 1.2 | 1486 ± 1.2 | 1472.6 ± 1.2
x1 = 0.09758 | 1504.9 ± 1.2 | 1493.2 ± 1.2 | 1481 ± 1.2 | 1467.8 ± 1.2 | 1454 ± 1.2
x1 = 0.1185 | 1487.8 ± 1.2 | 1475.4 ± 1.2 | 1462.3 ± 1.2 | 1448.6 ± 1.2 | 1434 ± 1.2
x1 = 0.145 | 1470.9 ± 1.2 | 1457.6 ± 1.2 | 1444 ± 1.2 | 1429.6 ± 1.2 | 1414.6 ± 1.2
x1 = 0.1945 | 1447.2 ± 1.2 | 1433.1 ± 1.2 | 1418.6 ± 1.2 | 1403.7 ± 1.2 | 1388.4 ± 1.2
x1 = 0.2213 | 1437.3 ± 1.2 | 1422.4 ± 1.2 | 1407.9 ± 1.2 | 1392.7 ± 1.2 | 1377.5 ± 1.2
x1 = 0.2686 | 1422.1 ± 1.2 | 1406.9 ± 1.2 | 1391.7 ± 1.2 | 1376 ± 1.2 | 1360.6 ± 1.2
x1 = 0.3432 | 1402.5 ± 1.3 | 1386.5 ± 1.3 | 1370.8 ± 1.3 | 1354.5 ± 1.2 | 1338.5 ± 1.2
x1 = 0.4424 | 1381.2 ± 1.3 | 1364.5 ± 1.3 | 1347.8 ± 1.3 | 1330.9 ± 1.3 | 1314.2 ± 1.3
x1 = 0.5415 | 1363 ± 1.3 | 1345.7 ± 1.3 | 1328.4 ± 1.3 | 1311 ± 1.3 | 1293.7 ± 1.3
x1 = 0.6444 | 1346.5 ± 1.4 | 1328.6 ± 1.4 | 1310.8 ± 1.4 | 1293 ± 1.4 | 1275.3 ± 1.4
x1 = 0.7056 | 1337.3 ± 1.4 | 1319.3 ± 1.4 | 1301.3 ± 1.4 | 1283.3 ± 1.4 | 1265.3 ± 1.4
x1 = 0.7569 | 1330.3 ± 1.4 | 1312 ± 1.4 | 1293.9 ± 1.4 | 1275.7 ± 1.4 | 1257.7 ± 1.4
x1 = 0.7951 | 1325.2 ± 1.4 | 1306.9 ± 1.4 | 1288.7 ± 1.4 | 1270.4 ± 1.4 | 1252.4 ± 1.4
x1 = 0.8374 | 1320.2 ± 1.5 | 1301.4 ± 1.4 | 1283.2 ± 1.4 | 1264.8 ± 1.4 | 1246.5 ± 1.4
x1 = 0.88 | 1314.6 ± 1.5 | 1296.2 ± 1.5 | 1277.8 ± 1.5 | 1259.4 ± 1.5 | 1240.9 ± 1.5
x1 = 0.9193 | 1310.3 ± 1.5 | 1291.7 ± 1.5 | 1273.4 ± 1.5 | 1254.8 ± 1.5 | 1236.5 ± 1.5
x1 = 0.9597 | 1306 ± 1.5 | 1287.3 ± 1.5 | 1268.9 ± 1.5 | 1250.2 ± 1.5 | 1231.7 ± 1.5
x1 = 1 | 1301.9 ± 1.5 | 1283.2 ± 1.5 | 1264.5 ± 1.5 | 1245.8 ± 1.5 | 1227.3 ± 1.5
